Laboratory results as given in US4910211A, “Novel benzothiazole and antirheumatic agent comprising it as an active ingredient” (Kanebo Ltd., priority 1987, dated 1990).
Entries after “also recorded” stand apart in the source; their conditions may differ. Read-outs that look alike come from different tables or passages of the source.

Assays:
rat adjuvant arthritis = test: Effect on the Development of Adjuvant Arthritis; type: in vivo, Fischer male rats; conditions: oral; for inhibition in vivo at 100 mg/kg / inhibition in vivo at 50 mg/kg: Rattus norvegicus, 504 h, 21 days after adjuvant, mean ± standard error
Description: Fischer male rats (8 weeks old; body weight 120-180 g) were grouped so that the average of body weights among the groups were nearly the same. Then, 0.1 ml of complete adjuvant obtained by suspending Mycobacterium butyricum (Difco Laboratories) in paraffin oil in a concentration of 6 mg/ml was injected into the footpad of the right hind paw to induce adjuvant arthritis.
Each of the test compounds was dissolved or suspended in a 1% gum arabic solution, and administered orally once a day on six days a week over a period of three weeks starting from the day of the adjuvant injection. The group administered with a 1% gum arabic solution instead of the test compound was served for a control. The volumes of both hind paws were measured plethysmographically by displacement of water at various times after injection of the adjuvant, and the percent paw edema inhibition was calculated from the following equation. [formula] Eexp : the percent paw edema in rats treated with the test compound Econt : the mean of percent paw edema in rats of the control group
The percent paw edema was calculated from the following equation. [formula] Vpost : the paw volume after treatment with the adjuvant Vpre : the paw volume before treatment with the adjuvant

in vivo = conditions: mouse, oral, mice died within a week, probit method
Description: ddY male mice (body weight about 23 g) were fasted overnight, and the test compound dissolved or suspended in a 1% gum arabic solution administered orally. From the number of mice died within a week, the LD50 value was calculated by the probit method.

[1] = tested on: Delayed-Type Hypersensitivity (DTH), enhanced immune reaction; test: Effect on Delayed-Type Hypersensitivity (DTH): enhanced immune reaction; type: in vivo, BALB/c male mice; conditions: for Footpad swelling inhibition / Footpad swelling: oral, cyclophosphamide 75 mg/kg; for Footpad swelling: mean ± standard error
Description: Three days after the sensitization, 0.05 ml of 8×10^9 /ml SRBC was injected into the footpad of the right hind paw for elicitation of DTH. Twenty four hours later, footpad swelling (mm) was measured in the same way as in (A) above, and the inhibition (%) of footpad swelling was calculated from the following equation.
The test compound was dissolved or suspended in a 1% gum arabic solution, and administered orally once a day over a period of 7 days starting from four days before the sensitization (immediately after administration of cyclophosphamide). To a control group, a 1% gum arabic solution was administered instead of the test compound. The group, administered with physiological saline instead of cyclophosphamide and a 1% gum arabic solution instead of test compound respectively, was served for a normal group. [formula] Tcont : the mean of the footpad swelling in mice of the control group Texp : the mean of the footpad swelling in mice treated with the test compound
Tnor : the mean of the footpad swelling in mice of the normal group.

[2] = tested on: Delayed-Type Hypersensitivity (DTH), normal immune reaction; test: Effect on Delayed-Type Hypersensitivity (DTH): normal immune reaction; type: in vivo, BALB/c male mice; conditions: for Footpad swelling inhibition / Footpad swelling: oral, normal immune reaction; for Footpad swelling: mean ± standard error
Description: BALB/c male mice (8 weeks old) were sensitized by injection into the tail vein with 0.2 ml of 5×10^6 /ml sheep red blood cells (SRBC). Three days after the sensitization, 0.05 ml of 8×10^9 /ml SRBC was injected into the footpad of the right hind paw for elicitation of DTH. Footpad thickness was measured immediately before and 24 hours after the elicitation with a dial thickness gauge. The level of DTH was expressed as footpad swelling (mm) at 24 hour. The inhibition (%) of footpad swelling was calculated from the following equation.
The test compound was dissolved or suspended in a 1% gum arabic solution, and administered orally once a day over a period of 7 days starting from four days before the sensitization. To a control group, a 1% gum arabic solution was administered instead of the test compound. [formula] Texp : the mean of the footpad swelling in mice treated with the test compound
Tcont : the mean of the footpad swelling in mice of the control group

[3] = tested on: rat carrageenin-induced paw edema; test: rat carrageenin-induced paw edema (acute inflammation); type: in vivo; conditions: 100 mg/kg
[4] = tested on: rat mustard-induced paw edema; test: rat mustard-induced paw edema (subacute inflammation); type: in vivo; conditions: 100 mg/kg
[5] = 100 mg/kg, read-out: Paw edema inhibition, Non-treated paw
[6] = 100 mg/kg, read-out: Paw edema inhibition, Treated paw
[7] = 3 mg/kg, ** P < 0.01 vs control
[8] = 10 mg/kg, ** P < 0.01 vs control
[9] = 30 mg/kg, * P < 0.05, ** P < 0.01 vs control
[10] = 100 mg/kg, * P < 0.05 vs control

CC(=O)Oc1ccc2sc(-c3ccc(C)cc3)nc2c1 [A, 5-acetoxy-2-(4-methylphenyl)benzothiazole] gave an inhibition in vivo at 100 mg/kg (rat adjuvant arthritis; [5]) of 4.5 ± 11.7% and an inhibition in vivo at 100 mg/kg (rat adjuvant arthritis; [6]) of 12.9 ± 4.4%.

Compound CC(=O)Oc1ccc2nc(-c3ccc(C)cc3)sc2c1 [B, 6-acetoxy-2-(4-methylphenyl)benzothiazole] has an inhibition in vivo at 100 mg/kg (rat adjuvant arthritis; [5]) of 4.4 ± 14.2% and an inhibition in vivo at 100 mg/kg (rat adjuvant arthritis; [6]) of -7.6 ± 8.8%.

For CC(=O)Oc1cccc2nc(-c3ccc(C)cc3)sc12 [C, 7-acetoxy-2-(4-methylphenyl)benzothiazole], the inhibition in vivo at 100 mg/kg (rat adjuvant arthritis; [5]) was 8.9 ± 10.4% and the inhibition in vivo at 100 mg/kg (rat adjuvant arthritis; [6]) was 16.6 ± 4.1%.

With CC(=O)Oc1cccc2sc(-c3ccc(C)cc3)nc12 [Example 5, 4-Acetoxy-2-(4-methylphenyl)benzothiazole] the LD50 at 168 h (in vivo) was greater than 3000 mg/kg, the Footpad swelling inhibition ([1]; 1 mg/kg) was 57.1% and the Footpad swelling ([1]; 1 mg/kg, * P < 0.05 vs control) was 37 ± 5 × 10^-2 mm. The Footpad swelling inhibition ([1]; 3 mg/kg) was 66.7%, the Footpad swelling [1, 7] was 35 ± 1 × 10^-2 mm and the Footpad swelling inhibition ([1]; 10 mg/kg) was 85.7%. The Footpad swelling [1, 8] was 31 ± 3 × 10^-2 mm, the Footpad swelling inhibition ([1]; 30 mg/kg) was 76.2% and the Footpad swelling [1, 9] was 33 ± 2 × 10^-2 mm. The Footpad swelling inhibition ([1]; 100 mg/kg) was 57.1%, the Footpad swelling [1, 10] was 37 ± 4 × 10^-2 mm and the Footpad swelling inhibition ([2]; 1 mg/kg) was 0.0%. The Footpad swelling ([2]; 1 mg/kg) was 59 ± 5 × 10^-2 mm, the Footpad swelling inhibition ([2]; 3 mg/kg) was -6.8% and the Footpad swelling ([2]; 3 mg/kg) was 63 ± 6 × 10^-2 mm. For the same compound, the Footpad swelling inhibition ([2]; 10 mg/kg) was 3.4%, the Footpad swelling ([2]; 10 mg/kg) was 57 ± 6 × 10^-2 mm and the Footpad swelling inhibition ([2]; 30 mg/kg) was -8.5%. For the same compound, the Footpad swelling ([2]; 30 mg/kg) was 64 ± 6 × 10^-2 mm, the Footpad swelling inhibition ([2]; 100 mg/kg) was 10.2% and the Footpad swelling ([2]; 100 mg/kg) was 53 ± 4 × 10^-2 mm. The inhibition in vivo at 100 mg/kg (rat adjuvant arthritis; [5]) was 32 ± 7.7% and the inhibition in vivo at 100 mg/kg (rat adjuvant arthritis; [6]) was 31.8 ± 3.9%.

COc1ccc(-c2nc3c(OC(C)=O)cccc3s2)cc1 [Example 6, 4-Acetoxy-2-(4-methoxyphenyl)benzothiazole] showed an LD50 at 168 h (in vivo) greater than 3000 mg/kg, an inhibition in vivo at 100 mg/kg (rat adjuvant arthritis; [5]) of 27.4 ± 10.8% and an inhibition in vivo at 100 mg/kg (rat adjuvant arthritis; [6]) of 24.7 ± 3.7%.

For CC(=O)Oc1cccc2sc(-c3ccc(C(=O)O)cc3)nc12 [Example 7, 4-(4-Acetoxybenzothiazol-2-yl)benzoic acid], the LD50 at 168 h (in vivo) was 2020 mg/kg, the inhibition in vivo at 100 mg/kg (rat adjuvant arthritis; [5]) was 38.5 ± 6% and the inhibition in vivo at 100 mg/kg (rat adjuvant arthritis; [6]) was 29.9 ± 2.9%.

Work on COC(=O)c1ccc(-c2nc3c(OC(C)=O)cccc3s2)cc1 [Example 8, Methyl 4-(4-acetoxybenzothiazol-2-yl)benzoate] yielded an LD50 at 168 h (in vivo) greater than 3000 mg/kg, an inhibition in vivo at 100 mg/kg (rat adjuvant arthritis; [5]) of 28.6 ± 8.8% and an inhibition in vivo at 100 mg/kg (rat adjuvant arthritis; [6]) of 29.3 ± 3.6%.

In the case of O=C([O-])c1ccccc1Nc1cc(Cl)ccc1C(=O)[O-].[Na+].[Na+] [Lobenzarit disodium, N-(2-carboxyphenyl)-4-chloroanthranilic acid disodium salt], the “effect on rat carrageenin-induced paw edema” value [3] is reported as “no effect”, the “effect on rat mustard-induced paw edema” value [4] is reported as “no effect” and the Footpad swelling inhibition ([1]; 1 mg/kg) is reported as 20.0%. For the same compound, the Footpad swelling ([1]; 1 mg/kg, * P < 0.05 vs control) was 47 ± 3 × 10^-2 mm, the Footpad swelling inhibition ([1]; 3 mg/kg) was 40.0% and the Footpad swelling [1, 7] was 43 ± 3 × 10^-2 mm. For the same compound, the Footpad swelling inhibition ([1]; 10 mg/kg) was -10.0%, the Footpad swelling [1, 8] was 53 ± 3 × 10^-2 mm and the Footpad swelling inhibition ([1]; 30 mg/kg) was 50.0%. The Footpad swelling [1, 9] was 41 ± 3 × 10^-2 mm, the Footpad swelling inhibition ([1]; 100 mg/kg) was 50.0% and the Footpad swelling [1, 10] was 41 ± 3 × 10^-2 mm. For the same compound, the “effect on DTH in an enhanced immune reaction (in words)” value ([1]; any doses) was “suppresses an abnormally enhanced immune reaction”, the Footpad swelling inhibition ([2]; 1 mg/kg) was 4.3% and the Footpad swelling ([2]; 1 mg/kg) was 67 ± 2 × 10^-2 mm. The Footpad swelling inhibition ([2]; 3 mg/kg) was 8.6%, the Footpad swelling ([2]; 3 mg/kg) was 64 ± 5 × 10^-2 mm and the Footpad swelling inhibition ([2]; 10 mg/kg) was -8.6%. For the same compound, the Footpad swelling ([2]; 10 mg/kg) was 76 ± 6 × 10^-2 mm, the Footpad swelling inhibition ([2]; 30 mg/kg) was 7.1% and the Footpad swelling ([2]; 30 mg/kg) was 65 ± 4 × 10^-2 mm. The Footpad swelling inhibition ([2]; 100 mg/kg) was 7.1%, the Footpad swelling ([2]; 100 mg/kg) was 65 ± 5 × 10^-2 mm and the “effect on DTH in a normal immune reaction (in words)” value ([2]; any doses, disodium salt) was “did not inhibit footpad swelling at any doses; also recorded: no effect on a normal immune reaction”. The “death during the test” value (rat adjuvant arthritis; 100 mg/kg, adjuvant arthritis rats, footnote of Table 1) was “Four animals out of 16”, the inhibition in vivo at 50 mg/kg (rat adjuvant arthritis; read-out: Paw edema inhibition, Non-treated paw) was -9 ± 12% and the inhibition in vivo at 50 mg/kg (rat adjuvant arthritis; read-out: Paw edema inhibition, Treated paw) was 6.3 ± 5.3%. For the same compound, the inhibition in vivo at 100 mg/kg (rat adjuvant arthritis; [5]) was -1.7 ± 11.4% and the inhibition in vivo at 100 mg/kg (rat adjuvant arthritis; [6]) was 15.1 ± 6.6%.
